Measured values taken from the supplement of paper PMC10307832.

Tests used:
Test in all cases: relative viability (nuclei count vs DMSO), 5 days (fraction); higher = more cells survive
JZL-184 = compound: C1CN(CCC1C(C2=CC3=C(C=C2)OCO3)(C4=CC5=C(C=C4)OCO5)O)C(=O)OC6=CC=C(C=C6)[N+](=O)[O-] [JZL-184]
How it was run: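 Acceptance criteria were a control CV below 25% and at least one doubling per plate. Lung cancer cell lines in 1536-well plates got five library-drug doses (not always all listed) √10 apart by pinning and were left 5 days with no medium change. Viability divides treated-well nuclei by vehicle-well nuclei and is the median across plates. Nuclei were counted by MetaXpress from 4× Hoechst images.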

JZL-184 + Trametinib = compound: C1CN(CCC1C(C2=CC3=C(C=C2)OCO3)(C4=CC5=C(C=C4)OCO5)O)C(=O)OC6=CC=C(C=C6)[N+](=O)[O-] [JZL-184] + CC(=O)Nc1cccc(-n2c(=O)n(C3CC3)c(=O)c3c(Nc4ccc(I)cc4F)n(C)c(=O)c(C)c32)c1 [Trametinib] (partner 0.02 µM)
How it was run: (§1)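 For relative viability, nuclei counts in treated wells were divided by those in vehicle wells. Lung cancer cell lines had been pin-tool dosed in 1536-well plates the day after seeding and cultured for 5 days, then fixed and stained in one step (final 0.05% Triton X-100, 1% formaldehyde, 1 ug/ml Hoechst) and imaged at 4×. Doses were one drug alone or a fixed anchor-drug dose plus five library-drug doses (not always all listed) in √10 steps, and values are duplicate-plate medians.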

JZL-184 + Palbociclib = compound: C1CN(CCC1C(C2=CC3=C(C=C2)OCO3)(C4=CC5=C(C=C4)OCO5)O)C(=O)OC6=CC=C(C=C6)[N+](=O)[O-] [JZL-184] + CC(=O)c1c(C)c2cnc(Nc3ccc(N4CCNCC4)cn3)nc2n(C2CCCC2)c1=O [Palbociclib] (partner 0.5 µM)
How it was run: as §1

JZL-184 + OSI-027 = compound: C1CN(CCC1C(C2=CC3=C(C=C2)OCO3)(C4=CC5=C(C=C4)OCO5)O)C(=O)OC6=CC=C(C=C6)[N+](=O)[O-] [JZL-184] + COc1cccc2cc(-c3nc([C@H]4CC[C@H](C(=O)O)CC4)n4ncnc(N)c34)[nH]c12 [OSI-027] (partner 0.5 µM)
How it was run: as §1

JZL-184 + Tozasertib = compound: C1CN(CCC1C(C2=CC3=C(C=C2)OCO3)(C4=CC5=C(C=C4)OCO5)O)C(=O)OC6=CC=C(C=C6)[N+](=O)[O-] [JZL-184] + Cc1cc(Nc2cc(N3CCN(C)CC3)nc(Sc3ccc(NC(=O)C4CC4)cc3)n2)n[nH]1 [Tozasertib] (partner 0.1 µM)
How it was run: as §1

JZL-184 + AZD7762 = compound: C1CN(CCC1C(C2=CC3=C(C=C2)OCO3)(C4=CC5=C(C=C4)OCO5)O)C(=O)OC6=CC=C(C=C6)[N+](=O)[O-] [JZL-184] + NC(=O)Nc1cc(-c2cccc(F)c2)sc1C(=O)N[C@H]1CCCNC1 [AZD7762] (partner 0.2 µM)
How it was run: as §1

JZL-184 + Pemetrexed = compound: C1CN(CCC1C(C2=CC3=C(C=C2)OCO3)(C4=CC5=C(C=C4)OCO5)O)C(=O)OC6=CC=C(C=C6)[N+](=O)[O-] [JZL-184] + Nc1nc2[nH]cc(CCc3ccc(C(=O)N[C@@H](CCC(=O)O)C(=O)O)cc3)c2c(=O)[nH]1 [Pemetrexed] (partner 0.2 µM)
How it was run: as §1

JZL-184 + Decitabine = compound: C1CN(CCC1C(C2=CC3=C(C=C2)OCO3)(C4=CC5=C(C=C4)OCO5)O)C(=O)OC6=CC=C(C=C6)[N+](=O)[O-] [JZL-184] + Nc1ncn([C@H]2C[C@H](O)[C@@H](CO)O2)c(=O)n1 [Decitabine] (partner 2 µM)
How it was run: as §1

JZL-184 + Vorinostat = compound: C1CN(CCC1C(C2=CC3=C(C=C2)OCO3)(C4=CC5=C(C=C4)OCO5)O)C(=O)OC6=CC=C(C=C6)[N+](=O)[O-] [JZL-184] + O=C(CCCCCCC(=O)Nc1ccccc1)NO [Vorinostat] (partner 1 µM)
How it was run: as §1

JZL-184 + Olaparib = compound: C1CN(CCC1C(C2=CC3=C(C=C2)OCO3)(C4=CC5=C(C=C4)OCO5)O)C(=O)OC6=CC=C(C=C6)[N+](=O)[O-] [JZL-184] + O=C(c1cc(Cc2n[nH]c(=O)c3ccccc23)ccc1F)N1CCN(C(=O)C2CC2)CC1 [Olaparib] (partner 8 µM)
How it was run: as §1

Cell Line: NCI-H1648
- relative viability (JZL-184; 0.04 µM): 0.593
- relative viability (JZL-184; 0.4 µM): 0.893
- relative viability (JZL-184; 1.265 µM): 1.07
- relative viability (JZL-184; 4 µM): 1.08
- relative viability (JZL-184 + Trametinib; first compound 0.04 µM): 0.402
- relative viability (JZL-184 + Trametinib; first compound 0.4 µM): 0.413
- relative viability (JZL-184 + Trametinib; first compound 1.265 µM): 0.481
- relative viability (JZL-184 + Trametinib; first compound 4 µM): 0.445
- relative viability (JZL-184 + Palbociclib; first compound 0.04 µM): 0.271
- relative viability (JZL-184 + Palbociclib; first compound 0.4 µM): 0.238
- relative viability (JZL-184 + Palbociclib; first compound 1.265 µM): 0.233
- relative viability (JZL-184 + Palbociclib; first compound 4 µM): 0.297
- relative viability (JZL-184 + OSI-027; first compound 0.4 µM): 0.24
- relative viability (JZL-184 + OSI-027; first compound 1.265 µM): 0.257
- relative viability (JZL-184 + OSI-027; first compound 4 µM): 0.223
- relative viability (JZL-184 + Tozasertib; first compound 0.4 µM): 0.491
- relative viability (JZL-184 + Tozasertib; first compound 1.265 µM): 0.466
- relative viability (JZL-184 + Tozasertib; first compound 4 µM): 0.538
- relative viability (JZL-184 + AZD7762; first compound 0.04 µM): 0.694
- relative viability (JZL-184 + AZD7762; first compound 0.4 µM): 0.719
- relative viability (JZL-184 + AZD7762; first compound 1.265 µM): 0.824
- relative viability (JZL-184 + AZD7762; first compound 4 µM): 0.706
- relative viability (JZL-184 + Pemetrexed; first compound 0.04 µM): 0.712
- relative viability (JZL-184 + Pemetrexed; first compound 0.4 µM): 0.832
- relative viability (JZL-184 + Pemetrexed; first compound 1.265 µM): 0.651
- relative viability (JZL-184 + Pemetrexed; first compound 4 µM): 0.564
- relative viability (JZL-184 + Decitabine; first compound 0.04 µM): 0.437
- relative viability (JZL-184 + Decitabine; first compound 0.4 µM): 0.551
- relative viability (JZL-184 + Decitabine; first compound 1.265 µM): 0.546
- relative viability (JZL-184 + Decitabine; first compound 4 µM): 0.549
- relative viability (JZL-184 + Vorinostat; first compound 0.04 µM): 0.307
- relative viability (JZL-184 + Vorinostat; first compound 0.4 µM): 0.434
- relative viability (JZL-184 + Vorinostat; first compound 1.265 µM): 0.754
- relative viability (JZL-184 + Vorinostat; first compound 4 µM): 0.421
- relative viability (JZL-184 + Olaparib; first compound 0.04 µM): 1.03
- relative viability (JZL-184 + Olaparib; first compound 0.4 µM): 0.853
- relative viability (JZL-184 + Olaparib; first compound 1.265 µM): 0.783
- relative viability (JZL-184 + Olaparib; first compound 4 µM): 0.626
